Assay results published in the NIST ThermoML archive (doi:10.1021/je201130h).
Numbers after ± are expanded uncertainties.

Settings: 298.15 K; 101.33 kPa; Liquid; Vibrating tube method

Cc1ccccc1C [1,2-dimethylbenzene]
mass density: 875.52 ± 0.23 kg/m3

Cc1ccc(C)cc1 [1,4-dimethylbenzene]
mass density: 856.65 ± 0.23 kg/m3

CC(=O)CC(C)C [4-methylpentan-2-one]
mass density: 798.09 ± 0.24 kg/m3

C=CC(=O)O [propenoic acid]
mass density: 1059.17 ± 0.32 kg/m3

Cc1ccccc1 [toluene]
mass density: 862.34 ± 0.23 kg/m3
